According to patent publication US7589063B2, “Molecules which promote hematopoiesis” (Aplagen GmbH, priority 2004, dated 2009):

Test system: TF-1 cells
Assay: Proliferation assay with TF-1 cells by MTT
Type: cell-based
Conditions: MTT-assay data, dose-response fitted with GraphPad
Experimental: TF-1 Cells in logarithmic growth phase (˜2×10^5−1×10^6 cells/ml; RPMI medium; 20% fetal calf serum; supplemented with Penicillin, streptomycin, L-Glutamine; 0.5 ng/ml Interleukin 3) are washed (centrifuge 5 min. 1500 rpm and resuspend in RPMI complete without IL3 at 500,000 cells/ml) and pre-cultured before start of the assay for 24 h without IL-3. At the next day the cells are seeded in 24- or 96-well plates usually using at least 6 concentrations and 4 wells per concentration containing at least 10,000 cells/well per agent to be tested. Each experiment includes controls comprising recombinant EPO as a positive control agent and wells without addition of cytokine as negative control agent. Peptides and EPO-controls are prediluted in medium to the desired concentrations and added to the cells, starting a culture period of 3 days under standard culture conditions (37° C., 5% carbon dioxide in the gas phase, atmosphere saturated with water). […]
At day 4, prior to start of the analysis, a dilution series of a known number of TF-1 cells is prepared in a number of wells (0/2500/5000/10000/20000/50000 cells/well in 100 μl medium). These wells are treated in the same way as the test wells and later provide a calibration curve from which cell numbers can be determined. […] 25 μl of 10% sodium dodecylsulfate in water are added to each well prior to measurement E492 in an ELISA Reader.

## GGTYSCHFGGLTWVCKPQGG [SEQ. ID NO. 12]
  EC50 values: no activity detectable
